Measured values: patent US20240181000A1, “LGG-DERIVED PEPTIDES AND METHODS OF USE THEREOF” (Ohio State Innovation Foundation, priority 2021, published 2024)
No end group written: not given here.

Experiments:
[1] = test system: ST membrane; experiment: Confocal microscopy (bacterial cytological profiling); type: cell-based, Salmonella enterica; settings: 5×MIC, 3 h
Method: Mode of action of peptides analyzed through confocal microscopy: To determine the mode of action of P1 and P2, bacterial cytological profiling was conducted using confocal microscopy as described in. […] Incubated bacteria cultures were then centrifuged and re-suspended in 100 μL sterile water. Following suspension, 1 μg/mL of FM4-64 (Invitrogen™ Molecular Probes™) and 5 μM Syto-9 (Invitrogen™ Molecular Probes™) stains were added and incubated for 45 mins […] with 150 rpm. After incubation, the samples were centrifuged, and bacteria was re-suspended in 10 μl sterile water. For microscopic analysis, 3 μL of bacterial suspension was added to glass slides with 1.2% agar and 20% LB media. Untreated ST bacterial culture was used as a control. Leica TCS SP6 confocal scanning microscope (Excitation/emission (nm); FM4-64 (515/640), SYTO-9 (485/498) was used at the Ohio State University's Molecular and Cellular Imaging Center (MCIC; mcic.osu.edu/microscopy).

[2] = test system: S. typhimurium; experiment: P1 and P2 in drinking water, S. typhimurium infected chickens; type: in vivo; settings: 100 mg/L in drinking water, 7 dpi
Method: Both the P1 and P2 at 200 mg/L and 100 mg/L concentrations reduced S. typhimurium colonization by 0.78 (p<0.05) and 0.69 (p<0.05) log CFU/gm, respectively.

[3] = test system: APEC; experiment: Alanine scanning SAR, anti-APEC activity; type: cell-based, E. coli
Excerpt: Structure-activity relationship (SAR) study: To identify the crucial amino acid residues required for the peptide activity, alanine scanning libraries of peptides (P1, P2, and P3) (www.genscript.com/alanine_scanning.html) were synthesized (Table 22) and tested for anti-APEC activity as described above. The anti-APEC activity of peptide analogues (SEQ ID NO: 67-84) was then compared with the original peptide and the relative importance (% growth inhibition by peptide analogue/% growth inhibition by original peptide×100%) of each AA residue of the peptide was determined.

[4] = test system: APEC
Method: FIGS. 58A-58B show the APEC load after treatment 8 days dpi with LGG and 50 mg/mL of peptides in drinking water.

[5] = test system: commensal and probiotic bacteria; experiment: Effect against beneficial microbes; type: cell-based; settings: at MICs
Method: Effect against beneficial microbes: Peptides (P1, P2, and P3) were tested against different commensal and probiotic bacteria to determine their specificity of activity as described previously. Peptides were added at their MICs to 100 μL of known concentration of bacterial cultures and cultures were incubated under required conditions. Following incubation, OD600 of cultures was measured to determine the effect of peptides on bacterial growth.

[6] = test system: Salmonella enterica subsp. enterica serovar Enteritidis (SE); type: cell-based; settings: No treatment
Method: MIC was determined by selecting peptide concentration at which there is no increased growth (no increase in OD), given indication of no ST growth. An independent repeat experiment was conducted.
Heat and protease tolerance of peptides: P1, P2, and P4 were heated for 6 minutes at 86° C. or treated with protease proteinase K, 200 μg/mL at 50° C. for 30 minutes. After which, the treated and/or heated peptides at their respective MICs were evaluated in the inhibition assay with Salmonella. The protocol from above was repeated in the Tecan with the same controls.
To analyze the perceived efficacy of arginine and lysine substitutes reported in previous studies, specific amino acid residues in P1 and P2 were replaced with lysine or arginine to test if the alliterations enhanced anti-Salmonella (ST and SE) activity. The MICs of the arginine or lysine substituted peptides ([…] (SEQ ID NO:37), […] (SEQ ID NO:38), […] (SEQ ID NO:39), KDENK (SEQ ID NO:41), PDEKK (SEQ ID NO:42), KDEKK (SEQ ID NO:43), KHTAPK (SEQ ID NO:45)) were determined as described early. Two independent experiments were conducted to ensure accuracy.

[7] = test system: ST membrane; experiment: Transmission electron microscopy; type: cell-based, Salmonella enterica; settings: 10×MIC, 3 h
Method: ST was treated with 10× peptide MIC and incubated for 3 h.
Transmission electron microscopy: To further visually analyze the inhibitory effects of P1 and P2 on ST, transmission electron microscopy (TEM) was performed as described previously. […] After which, cells were fixed overnight with 3% glutaraldehyde and 2% paraformaldehyde at room temperature. Cells were then washed and postfixed with 1% osmium tetroxide (OsO4). The washed cells were then dehydrated, with graded ethanol, and embedded with Embed 812 kit (Electron Microscopy Sciences, Pa). Ultrathin (70 nm) sections were prepared on formvar-carbon coated grids and stained with uranyl acetate and lead citrate. Untreated ST was used as a control. TEM was conducted at MCIC using the Hitachi H-7500 microscope.

[8] = test system: OmpC; experiment: Immunoblot analysis; type: cell-based, E. coli; settings: densitometry
Method: (§1) Immunoblot analysis: To corroborate the findings of gene expression study, level of OmpC and MlaA proteins upon peptides (P1, P2, and P3) treatment was investigated as described previously. Peptides treated culture of APEC O78 was prepared as above and DMSO treated culture was used as control. Post-treatment, the fractions of cytoplasmic and membrane proteins was prepared using ultracentrifugation as previously described. The concentrations of fractionated membrane proteins were then normalized based on 280 nm and separated on a 12% SDS-PAGE. For immunoblot analysis, membrane proteins (25 μg) resolved on SDS-PAGE above were electrotransferred onto an Immuno-Blot® PVDF Membrane (Bio-Rad) and probed for OmpC and MlaA using anti-OmpC (1:2,000) (ThermoFisher Scientific) and anti-MlaA (1:15,000; Dr. Thomas J. Silhavy) polyclonal antibodies and goat anti-rabbit IgG HRP-conjugated secondary antibody (Sigma-Aldrich). The membrane was developed with Clarity Western ECL Substrate (Bio-Rad) and visualized in a FluorChem Q (proteinsimple) imager. The density of OmpC and MlaA proteins was quantified using ImageJ software.

[9] = test system: MlaA; experiment: Immunoblot analysis; type: cell-based, E. coli; settings: densitometry
Method: as §1

## PDENK [Peptide P2, PDENK]
[1]
  ST membrane in confocal microscopy (FM4-64 stain): little to no red stain present
[2]
  Reduction of S. typhimurium colonization in ceca: 0.69 log CFU/gm
[3]
  Relative importance of D and E in P2: 97.1%
  Relative importance of P, N and K in P2: < 40%
[4]; LGG and 50 mg/mL of peptides in drinking water, 8 days dpi
  Reduction of APEC colonization in ceca: 1.02 Log CFU/gm
[4]; in vivo
  Bodyweight: no significant effect
[5]
  Growth of Gram-negative beneficial bacteria, particularly E. coli: inhibited
  Growth of Gram-positive beneficial bacteria: no effect
[6]
  MIC against SE: 15 mM
[7]
  ST membrane in TEM: disruption of the membrane characterized by sloughed or flaccid appearance
[8]
  OmpC level lower than in untreated APEC: 9.27 folds
[9]
  MlaA level decreased vs untreated APEC: 1.40 folds
